# Test results published in BindingDB's records for doi:10.1016/s0028-3908(96)00171-2 (Smithkline Beecham Pharmaceuticals, 1997).
# Target: 5-hydroxytryptamine receptor 6 (Homo sapiens, UniProt P50406)
# Sequence (P50406 whole entry): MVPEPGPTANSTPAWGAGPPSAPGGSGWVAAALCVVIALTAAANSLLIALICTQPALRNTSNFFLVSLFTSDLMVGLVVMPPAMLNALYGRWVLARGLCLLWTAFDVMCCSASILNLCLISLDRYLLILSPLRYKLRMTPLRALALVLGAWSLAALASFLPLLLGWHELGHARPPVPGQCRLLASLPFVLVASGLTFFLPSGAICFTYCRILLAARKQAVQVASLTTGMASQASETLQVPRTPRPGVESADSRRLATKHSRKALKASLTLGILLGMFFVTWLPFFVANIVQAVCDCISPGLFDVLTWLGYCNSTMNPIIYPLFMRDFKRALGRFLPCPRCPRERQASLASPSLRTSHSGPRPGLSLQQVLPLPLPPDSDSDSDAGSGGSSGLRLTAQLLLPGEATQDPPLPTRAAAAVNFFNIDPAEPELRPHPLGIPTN
structure (smiles),measurement,value
CC(N)Cc1c[nH]c2ccc(OCc3cccs3)cc12 (stereo unspecified) [NSC_5311036],Ki,398 nM
